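The compound was tested at five concentrations on cells cultured in 96-well plates, with a 48-hour exposure period. At the GI50, growth is halved.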 Activity calls are given as the source filed them. No stated cut-off is given here; in the data, active = GI50 up to about 1.1 µM and inactive = higher.
Tests used:
Assay in all cases: DTP human tumour cell line panel, 48 h
[1] = tested on: 786-0
[2] = tested on: A498
[3] = tested on: A549
[4] = tested on: ACHN
[5] = tested on: BT-549
[6] = tested on: CAKI-1
[7] = tested on: CCRF-CEM
[8] = tested on: COLO 205
[9] = tested on: DU-145
[10] = tested on: EKVX
[11] = tested on: HCC 2998
[12] = tested on: HCT-116
[13] = tested on: HCT-15
[14] = tested on: HL-60
[15] = tested on: HOP-62
[16] = tested on: HOP-92
[17] = tested on: HT-29
[18] = tested on: IGROV-1
[19] = tested on: K562
[20] = tested on: KM12
[21] = tested on: LOX IMVI
[22] = tested on: M14
[23] = tested on: MCF7
[24] = tested on: MDA-MB-231
[25] = tested on: MDA-MB-435
[26] = tested on: MDA-N
[27] = tested on: MOLT-4
[28] = tested on: Malme-3M
[29] = tested on: NCI-H226
[30] = tested on: NCI-H23
[31] = tested on: NCI-H460
[32] = tested on: NCI-H522
[33] = tested on: NCI/ADR-RES
[34] = tested on: OVCAR-3
[35] = tested on: OVCAR-4
[36] = tested on: OVCAR-5
[37] = tested on: OVCAR-8
[38] = tested on: PC-3
[39] = tested on: RPMI-8226
[40] = tested on: SF-268
[41] = tested on: SF-295
[42] = tested on: SF-539
[43] = tested on: SK-MEL-28
[44] = tested on: SK-MEL-2
[45] = tested on: SK-MEL-5
[46] = tested on: SK-OV-3
[47] = tested on: SN12C
[48] = tested on: SNB-19
[49] = tested on: SNB-75
[50] = tested on: SR
[51] = tested on: SW-620
[52] = tested on: T47D
[53] = tested on: TK-10
[54] = tested on: U-251
[55] = tested on: UACC-257
[56] = tested on: UACC-62
[57] = tested on: UO-31
[58] = tested on: RXF 393
[59] = tested on: Hs-578T

## COc1c(O)c(OC)c2oc(-c3ccc(O)c(O)c3)c(OC)c(=O)c2c1O
[1]
  GI50: 15 µM (inactive)
[2]
  GI50: 31.6 µM (inactive)
[3]
  GI50: 35.6 µM (inactive)
[4]
  GI50: 31.4 µM (inactive)
[5]
  GI50: 6.81 µM (inactive)
[6]
  GI50: 26.9 µM (inactive)
[7]
  GI50: 23.9 µM (inactive)
[8]
  GI50: 27.1 µM (inactive)
[9]
  GI50: 24.2 µM (inactive)
[10]
  GI50: 29.6 µM (inactive)
[11]
  GI50: 29.3 µM (inactive)
[12]
  GI50: 31.2 µM (inactive)
[13]
  GI50: 11.5 µM
[14]
  GI50: 17.7 µM (inactive)
[15]
  GI50: 6.98 µM (inactive)
[16]
  GI50: 30.5 µM (inactive)
[17]
  GI50: 30.7 µM (inactive)
[18]
  GI50: 10.4 µM (inactive)
[19]
  GI50: 18.5 µM (inactive)
[20]
  GI50: 48.3 µM (inactive)
[21]
  GI50: 23.9 µM (inactive)
[22]
  GI50: 17.6 µM (inactive)
[23]
  GI50: 4.1 µM (inactive)
[24]
  GI50: 23.1 µM (inactive)
[25]
  GI50: 3.13 µM (inactive)
[26]
  GI50: 37.3 µM (inactive)
[27]
  GI50: 28.4 µM (inactive)
[28]
  GI50: 6.24 µM (inactive)
[29]
  GI50: 27.4 µM (inactive)
[30]
  GI50: 32.7 µM (inactive)
[31]
  GI50: 35.9 µM (inactive)
[32]
  GI50: 10.5 µM (inactive)
[33]
  GI50: 55.1 µM (inactive)
[34]
  GI50: 2.85 µM (inactive)
[35]
  GI50: 55 µM (inactive)
[36]
  GI50: 38.8 µM (inactive)
[37]
  GI50: 32.1 µM (inactive)
[38]
  GI50: 38.9 µM (inactive)
[39]
  GI50: 31.8 µM (inactive)
[40]
  GI50: 3.52 µM (inactive)
[41]
  GI50: 39.3 µM (inactive)
[42]
  GI50: 14.6 µM (inactive)
[43]
  GI50: 18.7 µM (inactive)
[44]
  GI50: 5.42 µM (inactive)
[45]
  GI50: 11.8 µM (inactive)
[46]
  GI50: 15.9 µM (inactive)
[47]
  GI50: 56.9 µM (inactive)
[48]
  GI50: 53.8 µM (inactive)
[49]
  GI50: 3.62 µM (inactive)
[50]
  GI50: 28.7 µM (inactive)
[51]
  GI50: 36.1 µM (inactive)
[52]
  GI50: 3.28 µM (inactive)
[53]
  GI50: 30.5 µM (inactive)
[54]
  GI50: 16.9 µM (inactive)
[55]
  GI50: 24 µM (inactive)
[56]
  GI50: 7.52 µM (inactive)
[57]
  GI50: 28.1 µM (inactive)

## O=C(CN1CCN(Cc2ccccc2)CC1)c1ccc2[nH]c(=O)oc2c1
[1]
  GI50: > 100 µM (inactive)
[2]
  GI50: > 100 µM (inactive)
[3]
  GI50: > 100 µM (inactive)
[4]
  GI50: > 100 µM (inactive)
[5]
  GI50: > 100 µM (inactive)
[6]
  GI50: > 100 µM (inactive)
[7]
  GI50: > 100 µM (inactive)
[8]
  GI50: > 100 µM (inactive)
[9]
  GI50: > 100 µM (inactive)
[10]
  GI50: > 66.2 µM (inactive)
[11]
  GI50: > 100 µM (inactive)
[12]
  GI50: > 100 µM (inactive)
[13]
  GI50: > 100 µM
[14]
  GI50: > 90.4 µM (inactive)
[15]
  GI50: > 100 µM (inactive)
[16]
  GI50: 53.1 µM (inactive)
[17]
  GI50: > 100 µM (inactive)
[18]
  GI50: 99.3 µM (inactive)
[19]
  GI50: > 100 µM (inactive)
[20]
  GI50: > 100 µM (inactive)
[21]
  GI50: > 100 µM (inactive)
[22]
  GI50: > 100 µM (inactive)
[23]
  GI50: > 100 µM (inactive)
[24]
  GI50: > 100 µM (inactive)
[25]
  GI50: > 30.5 µM (inactive)
[26]
  GI50: > 100 µM (inactive)
[27]
  GI50: > 100 µM (inactive)
[28]
  GI50: 0.845 µM (active)
[29]
  GI50: > 50.6 µM (inactive)
[30]
  GI50: > 100 µM (inactive)
[31]
  GI50: > 100 µM (inactive)
[32]
  GI50: 74.5 µM (inactive)
[33]
  GI50: > 100 µM (inactive)
[34]
  GI50: > 100 µM (inactive)
[35]
  GI50: > 100 µM (inactive)
[36]
  GI50: > 100 µM (inactive)
[37]
  GI50: > 100 µM (inactive)
[38]
  GI50: > 100 µM (inactive)
[39]
  GI50: > 100 µM (inactive)
[58]
  GI50: > 100 µM (inactive)
[40]
  GI50: > 100 µM (inactive)
[41]
  GI50: > 100 µM (inactive)
[42]
  GI50: > 100 µM (inactive)
[43]
  GI50: > 100 µM (inactive)
[44]
  GI50: > 100 µM (inactive)
[45]
  GI50: > 100 µM (inactive)
[46]
  GI50: > 100 µM (inactive)
[47]
  GI50: > 100 µM (inactive)
[48]
  GI50: > 100 µM (inactive)
[49]
  GI50: > 41.3 µM (inactive)
[50]
  GI50: > 67.1 µM (inactive)
[51]
  GI50: > 100 µM (inactive)
[52]
  GI50: > 100 µM (inactive)
[53]
  GI50: > 100 µM (inactive)
[54]
  GI50: > 88.7 µM (inactive)
[55]
  GI50: > 100 µM (inactive)
[56]
  GI50: > 100 µM (inactive)
[57]
  GI50: 60.7 µM (inactive)

## O=C1C(O)=C(Cc2ccccc2)C(=O)c2ccccc21
[1]
  GI50: 61.7 µM (inactive)
[2]
  GI50: 51.6 µM (inactive)
[5]
  GI50: 70.8 µM (inactive)
[10]
  GI50: 55.1 µM (inactive)
[11]
  GI50: 83.2 µM (inactive)
[12]
  GI50: 50.6 µM (inactive)
[13]
  GI50: 35.6 µM
[17]
  GI50: 48.9 µM (inactive)
[59]
  GI50: 37.3 µM (inactive)
[22]
  GI50: 34.8 µM (inactive)
[24]
  GI50: 91.2 µM (inactive)
[30]
  GI50: 49.1 µM (inactive)
[33]
  GI50: 49.5 µM (inactive)
[34]
  GI50: 27.7 µM (inactive)
[35]
  GI50: 46.6 µM (inactive)
[36]
  GI50: > 100 µM (inactive)
[38]
  GI50: 54.5 µM (inactive)
[41]
  GI50: 45.3 µM (inactive)
[43]
  GI50: 42.3 µM (inactive)
[44]
  GI50: 42 µM (inactive)
[45]
  GI50: 18.7 µM (inactive)
[46]
  GI50: 63.5 µM (inactive)
[53]
  GI50: > 100 µM (inactive)
[55]
  GI50: 46.8 µM (inactive)
[57]
  GI50: 41.6 µM (inactive)

## O=C1CCCC2=C1CC1=C(CCCC1=O)N2c1ccc([N+](=O)[O-])cc1
[1]
  GI50: > 100 µM (inactive)
[2]
  GI50: > 100 µM (inactive)
[3]
  GI50: > 100 µM (inactive)
[4]
  GI50: > 100 µM (inactive)
[5]
  GI50: > 100 µM (inactive)
[6]
  GI50: > 100 µM (inactive)
[7]
  GI50: > 100 µM (inactive)
[10]
  GI50: > 100 µM (inactive)
[11]
  GI50: > 100 µM (inactive)
[13]
  GI50: > 100 µM
[14]
  GI50: > 100 µM (inactive)
[17]
  GI50: > 100 µM (inactive)
[59]
  GI50: > 100 µM (inactive)
[18]
  GI50: > 100 µM (inactive)
[19]
  GI50: > 100 µM (inactive)
[20]
  GI50: > 100 µM (inactive)
[21]
  GI50: > 100 µM (inactive)
[22]
  GI50: > 100 µM (inactive)
[23]
  GI50: > 100 µM (inactive)
[27]
  GI50: > 100 µM (inactive)
[29]
  GI50: > 100 µM (inactive)
[30]
  GI50: > 100 µM (inactive)
[31]
  GI50: > 100 µM (inactive)
[33]
  GI50: > 100 µM (inactive)
[34]
  GI50: > 100 µM (inactive)
[35]
  GI50: > 100 µM (inactive)
[36]
  GI50: > 100 µM (inactive)
[37]
  GI50: > 100 µM (inactive)
[38]
  GI50: > 100 µM (inactive)
[39]
  GI50: > 100 µM (inactive)
[58]
  GI50: > 100 µM (inactive)
[40]
  GI50: > 100 µM (inactive)
[42]
  GI50: > 100 µM (inactive)
[43]
  GI50: > 100 µM (inactive)
[45]
  GI50: > 100 µM (inactive)
[46]
  GI50: > 100 µM (inactive)
[47]
  GI50: > 100 µM (inactive)
[48]
  GI50: > 100 µM (inactive)
[49]
  GI50: > 100 µM (inactive)
[50]
  GI50: > 100 µM (inactive)
[51]
  GI50: > 100 µM (inactive)
[53]
  GI50: > 100 µM (inactive)
[54]
  GI50: > 100 µM (inactive)
[56]
  GI50: > 100 µM (inactive)
[57]
  GI50: > 100 µM (inactive)

From ChEMBL document CHEMBL1201862, “PubChem BioAssay data set” (2004)
